Reference: ChEMBL document CHEMBL4828759, “Targeted methylation facilitates DNA double strand breaks and enhances cancer suppression: A DNA intercalating/methylating dual-action chimera Amonafidazene” (Eur J Med Chem, 2021)
Active and inactive are the calls of the source. The calls are words filed in the database; no cut-off is given here.

Tests used:
[1] = system: A 172; assay: Cytotoxicity against human A 172 cells assessed as cell viability measured after 96 hrs by XTT assay; type: functional, cell-based; details: A 172, 96 h
[2] = system: MDA-MB-238; assay: Cytotoxicity against human […] cells assessed as cell viability measured after 96 hrs by XTT assay; type: functional, cell-based
[3] = system: WM 266-4; assay: Cytotoxicity against human WM 266-4 cells assessed as cell viability measured after 96 hrs by XTT assay; type: functional, cell-based; details: WM 266-4, 96 h
[4] = system: NCI-H1299; assay: Cytotoxicity against human NCI-H1299 cells assessed as cell viability measured after 96 hrs by XTT assay; type: functional, cell-based; details: NCI-H1299, 96 h
[5] = system: MDA-MB-238; assay: Antitumour activity against human […] cells xenografted in athymic nude-Foxn 1nu mouse assessed as inhibition of tumour growth at 1.9 mg/kg, ip measured after 5 weeks; type: functional, organism-based
[6] = system: MDA-MB-238; assay: Inhibition of DNA Topoisomerase-2 in human […] cells assessed as generation of DNA double strand breaks by measuring gamma-H2AX at 2 uM incubated for 24 hrs followed by drug washout and measured after 24 hrs by immunofluorescence assay; type: cell-based
[7] = system: MDA-MB-238; assay: Inhibition of DNA Topoisomerase-2 in human […] cells assessed as generation of DNA double strand breaks measuring gamma-H2AX at 2 uM incubated for 24 hrs followed by drug washout and measured after 96 hrs by immunofluorescence assay; type: cell-based
[8] = Drug metabolism in human MDA-MB-231 cells xenografted in athymic Balb/c mouse assessed as increase of free amonafide in tumor at 10 mg/kg, ip measured after 120 hrs by fluorescence based microscopic assay; type: ADME, organism-based; details: in vivo
[9] = Drug metabolism in human MDA-MB-231 cells assessed as increase of free amonafide in cell at 25 uM measured after 2 hrs by fluorescence based microscopic assay; type: ADME; details: mda-mb-231, 2 h
[10] = system: MDA-MB-238; assay: Antitumour activity against human […] cells xenografted in athymic nude-Foxn 1nu mouse assessed as inhibition of tumour growth at 3.8 mg/kg, ip measured after 5 weeks; type: functional, organism-based
[11] = system: DNA; assay: Induction of DNA methylation in human HCT-116 cells assessed as reduction of MGMT expression at 200 uM measured after 48 hrs by Western blot assay relative to control; type: functional, cell-based; parameters: scale not given: the % may be the effect or the level left
[12] = system: DNA; assay: Induction of DNA methylation in human HCT-116 cells assessed as reduction of MGMT expression at 400 uM measured after 48 hrs by Western blot assay relative to control; type: functional, cell-based; parameters: scale not given: the % may be the effect or the level left
[13] = system: MDA-MB-238; assay: Inhibition of DNA Topoisomerase-2 in human […] cells assessed as generation of DNA double strand breaks measuring gamma-H2AX at incubated for 24 hrs followed by drug washout and measured after 24 to 96 hrs by immunofluorescence assay; type: cell-based

| SMILES | IC50 [1] | IC50 [2] | IC50 [3] | IC50 [4] | Activity [5] | inhibition [6] | inhibition [7] | Drug metabolism [8] | Drug metabolism [9] | Activity [10] | Activity [11] | Activity [12] | inhibition [13] |
| --- | --- | --- | --- | --- | --- | --- | --- | --- | --- | --- | --- | --- | --- |
| COC(=O)N(C)/N=N/c1ccc(COC(=O)Nc2ccc3c4c(cccc24)C(=O)N(CCN(C)C)C3=O)cc1 | 7.46 µM | 6.26 µM | 4.86 µM | 3.61 µM |  |  |  |  |  |  |  |  |  |
| CN(C)CCN1C(=O)c2cccc3cc(N)cc(c23)C1=O [AMONAFIDE] | 23.8 µM | 24.2 µM | 6.92 µM | 8.84 µM | Active | Active | Active |  |  |  |  |  |  |
| COC(=O)N(C)/N=N/c1ccc(COC(=O)Nc2cc3c4c(cccc4c2)C(=O)N(CCN(C)C)C3=O)cc1 | 2.73 µM | 3.02 µM | 3.79 µM | 1.79 µM | Active | Active | Active | Metabolite_Detected | Metabolite_Detected | Active |  |  |  |
| Cn1nnc2c(C(N)=O)ncn2c1=O [TEMOZOLOMIDE] | > 40 µM | > 100 µM | > 100 µM | > 100 µM |  |  |  |  |  |  | 93% | 57% | inactive |
| COC(=O)N(C)/N=N/c1ccc(CO)cc1 | > 40 µM | > 100 µM | > 100 µM | > 100 µM |  |  |  |  |  |  | 75% | 48% |  |
